In PubChem BioAssay AID1963827 (Molecular Pharmacology Branch, DTP, NCI, 2024):

System: 994946-033-R-J1-PDC complex spheroid viability
Experiment: Anticancer human tumor 994946-033-R-J1-PDC patient-derived melanoma cell line growth inhibition [POLQ]
Settings: for IC50: curve of first compound; for viability, T/C: stronger effect = lower value
In short: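 Three-cell-type spheroids modelling solid tumor plus stroma served as the readout system; POL inhibitors were tested individually and in combination, concentration ranges set by clinical Cmax where known.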

[1] = second compound 0.0316 µM, first compound 0.0316 µM
[2] = second compound 0.0316 µM, first compound 0.1 µM
[3] = second compound 0.0316 µM, first compound 0.316 µM
[4] = second compound 0.0316 µM, first compound 1 µM
[5] = second compound 0.0316 µM, first compound 3.16 µM
[6] = second compound 0.0316 µM, first compound 10 µM
[7] = second compound 0.1 µM, first compound 0.0316 µM
[8] = second compound 0.1 µM, first compound 0.1 µM
[9] = second compound 0.1 µM, first compound 0.316 µM
[10] = second compound 0.1 µM, first compound 1 µM
[11] = second compound 0.1 µM, first compound 3.16 µM
[12] = second compound 0.1 µM, first compound 10 µM
[13] = second compound 0.316 µM, first compound 0.0316 µM
[14] = second compound 0.316 µM, first compound 0.1 µM
[15] = second compound 0.316 µM, first compound 0.316 µM
[16] = second compound 0.316 µM, first compound 1 µM
[17] = second compound 0.316 µM, first compound 3.16 µM
[18] = second compound 0.316 µM, first compound 10 µM
[19] = second compound 1 µM, first compound 0.0316 µM
[20] = second compound 1 µM, first compound 0.1 µM
[21] = second compound 1 µM, first compound 0.316 µM
[22] = second compound 1 µM, first compound 1 µM
[23] = second compound 1 µM, first compound 3.16 µM
[24] = second compound 1 µM, first compound 10 µM
[25] = second compound 3.16 µM, first compound 0.0316 µM
[26] = second compound 3.16 µM, first compound 0.1 µM
[27] = second compound 3.16 µM, first compound 0.316 µM
[28] = second compound 3.16 µM, first compound 1 µM
[29] = second compound 3.16 µM, first compound 3.16 µM
[30] = second compound 3.16 µM, first compound 10 µM
[31] = second compound 10 µM, first compound 0.0316 µM
[32] = second compound 10 µM, first compound 0.1 µM
[33] = second compound 10 µM, first compound 0.316 µM
[34] = second compound 10 µM, first compound 1 µM
[35] = second compound 10 µM, first compound 3.16 µM
[36] = second compound 10 µM, first compound 10 µM
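Note: spheroids exposed to drugs for 7 days.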
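Throughout, for viability, T/C: 100% = DMSO vehicle treated spheroids.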

For C#Cc1c(F)ccc2cc(O)cc(-c3ncc4c(N5CC6CCC(C5)N6)nc(OCC56CCCN5CC(F)C6)nc4c3F)c12 (stereo unspecified) + COC1C(OC(N)=O)C(O)C(Oc2ccc3c(O)c(NC(=O)c4ccc(O)c(CC=C(C)C)c4)c(=O)oc3c2C)OC1(C)C, the IC50 (second compound 0.0316 µM) was 5.06 µM, the IC50 (second compound 0.1 µM) was 5.48 µM and the IC50 (second compound 0.316 µM) was 4.01 µM. The IC50 (second compound 1 µM) was 5.89 µM, the IC50 (second compound 3.16 µM) was 4.14 µM and the IC50 (second compound 10 µM) was 5.33 µM. For the same molecule, the viability, T/C [1] was 116%, the viability, T/C [2] was 121% and the viability, T/C [3] was 87.2%. For the same molecule, the viability, T/C [4] was 139%, the viability, T/C [5] was 76.4% and the viability, T/C [6] was 11.8%. For the same molecule, the viability, T/C [7] was 107%, the viability, T/C [8] was 98.7% and the viability, T/C [9] was 78.8%. The viability, T/C [10] was 110%, the viability, T/C [11] was 82.7% and the viability, T/C [12] was 14.3%. The viability, T/C [13] was 106%, the viability, T/C [14] was 99.7% and the viability, T/C [15] was 96.2%. It also gave a viability, T/C [16] of 84.7%, a viability, T/C [17] of 61% and a viability, T/C [18] of 10.2%. It also gave a viability, T/C [19] of 77.9%, a viability, T/C [20] of 114% and a viability, T/C [21] of 81.7%. The viability, T/C [22] was 71.5%, the viability, T/C [23] was 82.5% and the viability, T/C [24] was 26.6%. For the same molecule, the viability, T/C [25] was 98.2%, the viability, T/C [26] was 92.7% and the viability, T/C [27] was 105%. For the same molecule, the viability, T/C [28] was 94.7%, the viability, T/C [29] was 62.3% and the viability, T/C [30] was 9.63%. For the same molecule, the viability, T/C [31] was 94.8%, the viability, T/C [32] was 93.2% and the viability, T/C [33] was 65.9%. The viability, T/C [34] was 92%, the viability, T/C [35] was 86.3% and the viability, T/C [36] was 6.26%.
Work on Cn1ncnc1[C@H]1c2n[nH]c(=O)c3cc(F)cc(c23)N[C@@H]1c1ccc(F)cc1 + Nc1ccc(C#CCN(C(=O)Cc2ncc(C(F)(F)F)cc2C(F)(F)F)c2ccc(F)cc2)nn1 yielded an IC50 (second compound 0.0316 µM) of over 0.1 µM, an IC50 (second compound 0.1 µM) of over 0.1 µM and an IC50 (second compound 0.316 µM) of over 0.1 µM. For the same molecule, the IC50 (second compound 1 µM) was over 0.1 µM, the IC50 (second compound 3.16 µM) was over 0.1 µM and the IC50 (second compound 10 µM) was over 0.1 µM. For the same molecule, the viability, T/C (second compound 0.0316 µM, first compound 0.000316 µM) was 98.5%, the viability, T/C (second compound 0.0316 µM, first compound 0.001 µM) was 99.3% and the viability, T/C (second compound 0.0316 µM, first compound 0.00316 µM) was 79.2%. It also gave a viability, T/C (second compound 0.0316 µM, first compound 0.01 µM) of 91.6%, a viability, T/C [1] of 86.8% and a viability, T/C [2] of 54.3%. For the same molecule, the viability, T/C (second compound 0.1 µM, first compound 0.000316 µM) was 101%, the viability, T/C (second compound 0.1 µM, first compound 0.001 µM) was 71.5% and the viability, T/C (second compound 0.1 µM, first compound 0.00316 µM) was 69%. For the same molecule, the viability, T/C (second compound 0.1 µM, first compound 0.01 µM) was 93.8%, the viability, T/C [7] was 59.2% and the viability, T/C [8] was 65.9%. It also gave a viability, T/C (second compound 0.316 µM, first compound 0.000316 µM) of 110%, a viability, T/C (second compound 0.316 µM, first compound 0.001 µM) of 48.7% and a viability, T/C (second compound 0.316 µM, first compound 0.00316 µM) of 92.3%. For the same molecule, the viability, T/C (second compound 0.316 µM, first compound 0.01 µM) was 70.8%, the viability, T/C [13] was 77.3% and the viability, T/C [14] was 51%. It also gave a viability, T/C (second compound 1 µM, first compound 0.000316 µM) of 65.3%, a viability, T/C (second compound 1 µM, first compound 0.001 µM) of 93% and a viability, T/C (second compound 1 µM, first compound 0.00316 µM) of 71.5%. The viability, T/C (second compound 1 µM, first compound 0.01 µM) was 72.4%, the viability, T/C [19] was 59.2% and the viability, T/C [20] was 55%. For the same molecule, the viability, T/C (second compound 3.16 µM, first compound 0.000316 µM) was 116%, the viability, T/C (second compound 3.16 µM, first compound 0.001 µM) was 69.4% and the viability, T/C (second compound 3.16 µM, first compound 0.00316 µM) was 74.5%. It also gave a viability, T/C (second compound 3.16 µM, first compound 0.01 µM) of 62%, a viability, T/C [25] of 68.6% and a viability, T/C [26] of 79.7%. The viability, T/C (second compound 10 µM, first compound 0.000316 µM) was 77.7%, the viability, T/C (second compound 10 µM, first compound 0.001 µM) was 91% and the viability, T/C (second compound 10 µM, first compound 0.00316 µM) was 87.3%. For the same molecule, the viability, T/C (second compound 10 µM, first compound 0.01 µM) was 87%, the viability, T/C [31] was 67.7% and the viability, T/C [32] was 57.2%.
CNCc1ccc(-c2[nH]c3cc(F)cc4c3c2CCNC4=O)cc1 + COC1C(OC(N)=O)C(O)C(Oc2ccc3c(O)c(NC(=O)c4ccc(O)c(CC=C(C)C)c4)c(=O)oc3c2C)OC1(C)C was tested, and the IC50 (second compound 0.0316 µM) was over 10 µM, the IC50 (second compound 0.1 µM) was over 10 µM and the IC50 (second compound 0.316 µM) was over 10 µM. The IC50 (second compound 1 µM) was over 10 µM, the IC50 (second compound 3.16 µM) was over 10 µM and the IC50 (second compound 10 µM) was over 10 µM. The viability, T/C [1] was 114%, the viability, T/C [2] was 93.7% and the viability, T/C [3] was 96%. It also gave a viability, T/C [4] of 96.3%, a viability, T/C [5] of 101% and a viability, T/C [6] of 70.9%. The viability, T/C [7] was 107%, the viability, T/C [8] was 119% and the viability, T/C [9] was 83%. For the same molecule, the viability, T/C [10] was 114%, the viability, T/C [11] was 94.4% and the viability, T/C [12] was 93.3%. For the same molecule, the viability, T/C [13] was 117%, the viability, T/C [14] was 126% and the viability, T/C [15] was 105%. The viability, T/C [16] was 117%, the viability, T/C [17] was 107% and the viability, T/C [18] was 61.1%. For the same molecule, the viability, T/C [19] was 107%, the viability, T/C [20] was 91.4% and the viability, T/C [21] was 88.4%. The viability, T/C [22] was 110%, the viability, T/C [23] was 109% and the viability, T/C [24] was 61.6%. It also gave a viability, T/C [25] of 92.9%, a viability, T/C [26] of 95.2% and a viability, T/C [27] of 106%. For the same molecule, the viability, T/C [28] was 112%, the viability, T/C [29] was 99.2% and the viability, T/C [30] was 72.8%. The viability, T/C [31] was 117%, the viability, T/C [32] was 94.6% and the viability, T/C [33] was 80.3%. It also gave a viability, T/C [34] of 85.1%, a viability, T/C [35] of 94.5% and a viability, T/C [36] of 64.8%.
